Experimental data published in ChEMBL document CHEMBL1125332, “Synthesis and biological evaluation of 5'-sulfamoylated purinyl carbocyclic nucleosides” (J Med Chem, 1992).
Values after ≈ are worked out from the molar mass of the structure shown.

Test system: P388
Test: Cytotoxicity against P388 mouse leukemia cells
Type: functional, cell-based

Structure (SMILES) | IC50 [µg/mL]
COc1ccc(C[C@H](N)C(=O)N[C@H]2[C@@H](O)[C@H](n3cnc4c(N(C)C)ncnc43)O[C@@H]2CO)cc1 [PUROMYCIN] | 0.5 (≈ 1.06 µM)
CSc1ncnc2c1ncn2C1CC(COS(N)(=O)=O)C(O)C1O (centres undefined) | 50 (≈ 133 µM)
Nc1ncnc2c1nnn2C1CC(CO)C(O)C1O (centres undefined) | 0.5 (≈ 1.88 µM)
Nc1ncnc2c1ncn2[C@@H]1C[C@H](CO)[C@@H](O)[C@H]1O [ARISTEROMYCIN] | 0.5 (≈ 1.88 µM)
Nc1ncnc2c1ncn2COCCOS(N)(=O)=O | > 100
Nc1ncnc2c1nnn2C1CC(COS(N)(=O)=O)C(O)C1O (centres undefined) | 0.0625 (≈ 0.181 µM)
CNc1ncnc2c1ncn2C1CC(COS(N)(=O)=O)C(O)C1O (centres undefined) | 4 (≈ 11.2 µM)
Nc1ncnc2c1ncn2C1CC(COS(N)(=O)=O)C(O)C1O (centres undefined) | 0.125 (≈ 0.363 µM)
CN(C)c1ncnc2c1ncn2C1CC(COS(N)(=O)=O)C(O)C1O (centres undefined) | 74 (≈ 199 µM)
